From patent US10000535B2, “Template-fixed peptidomimetics” (POLYPHOR LTD., priority 2007, dated 2018)
Non-standard residues stand in square brackets, D forms with d. Residues, ends and D or L forms follow the SMILES beside them. Aze = O=C(O)[C@@H]1CCN1

Experiments:
Experiment in all cases: Selectivity calcium flux assay, chemokine receptor panel
Assay type in all cases: cell-based
Conditions in all cases: at 10 μM
CCR7 = target: T1, CCR7 (Homo sapiens, UniProt P32248)
T1 sequence (P32248 25-378): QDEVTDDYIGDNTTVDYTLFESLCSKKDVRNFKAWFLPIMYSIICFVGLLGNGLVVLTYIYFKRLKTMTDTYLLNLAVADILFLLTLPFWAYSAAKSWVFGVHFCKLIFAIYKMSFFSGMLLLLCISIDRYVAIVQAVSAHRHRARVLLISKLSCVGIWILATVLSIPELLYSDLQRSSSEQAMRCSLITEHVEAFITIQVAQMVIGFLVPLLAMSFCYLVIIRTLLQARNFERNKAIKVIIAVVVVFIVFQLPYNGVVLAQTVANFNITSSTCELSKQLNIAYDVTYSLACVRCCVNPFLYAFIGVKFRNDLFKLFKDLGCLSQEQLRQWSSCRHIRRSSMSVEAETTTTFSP
Protocol: (§1) Selectivity was measured using the calcium flux assay on a panel of human chemokine receptor bearing cell lines (CCR1, CCR2, CCR3, CCR4, CCR5, CCR6, CCR7, CCR8, CCR9, CCR10, CXCR1, CXCR2, CXCR2, CXCR4, CXCR6 and CXCCR1) using the same method as above

CXCR1 = target: T2, CXCR1 (Homo sapiens, UniProt P25024)
T2 sequence (P25024 1-350): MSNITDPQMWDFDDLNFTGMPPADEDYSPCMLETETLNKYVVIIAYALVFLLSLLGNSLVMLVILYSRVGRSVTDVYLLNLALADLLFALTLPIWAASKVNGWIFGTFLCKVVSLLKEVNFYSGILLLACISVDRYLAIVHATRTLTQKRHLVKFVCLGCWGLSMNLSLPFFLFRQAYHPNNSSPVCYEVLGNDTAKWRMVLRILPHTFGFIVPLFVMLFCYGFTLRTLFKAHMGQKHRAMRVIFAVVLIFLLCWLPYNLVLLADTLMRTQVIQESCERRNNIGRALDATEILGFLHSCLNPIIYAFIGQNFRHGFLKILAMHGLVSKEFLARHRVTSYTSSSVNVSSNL
Protocol: as §1

CXCCR1 = target: T3, CXCCR1 (Homo sapiens, UniProt P49238)
T3 sequence (P49238 1-355): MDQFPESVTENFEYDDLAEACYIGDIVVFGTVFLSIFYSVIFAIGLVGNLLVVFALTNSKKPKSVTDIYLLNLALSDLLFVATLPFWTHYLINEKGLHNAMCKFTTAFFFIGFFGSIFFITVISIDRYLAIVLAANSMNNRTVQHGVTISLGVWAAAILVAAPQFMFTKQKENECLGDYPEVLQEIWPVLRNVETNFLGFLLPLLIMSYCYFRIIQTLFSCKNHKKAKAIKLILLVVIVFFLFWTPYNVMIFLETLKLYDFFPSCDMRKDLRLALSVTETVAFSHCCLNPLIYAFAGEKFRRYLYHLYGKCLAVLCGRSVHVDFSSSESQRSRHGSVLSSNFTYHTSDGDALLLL
Protocol: as §1

CCR1 = target: T4, CCR1 (Homo sapiens, UniProt P32246)
T4 sequence (P32246 1-355): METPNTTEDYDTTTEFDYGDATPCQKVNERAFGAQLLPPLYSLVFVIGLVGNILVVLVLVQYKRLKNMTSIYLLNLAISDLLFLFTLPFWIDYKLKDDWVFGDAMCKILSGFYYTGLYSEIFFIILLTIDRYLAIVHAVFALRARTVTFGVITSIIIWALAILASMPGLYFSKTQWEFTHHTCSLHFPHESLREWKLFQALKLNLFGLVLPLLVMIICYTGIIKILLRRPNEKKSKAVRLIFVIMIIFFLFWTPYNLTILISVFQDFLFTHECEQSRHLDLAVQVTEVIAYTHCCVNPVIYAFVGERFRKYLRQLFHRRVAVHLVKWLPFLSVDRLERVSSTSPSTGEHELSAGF
Protocol: as §1

CCR9 = target: T5, CCR9 (Homo sapiens, UniProt P51686)
T5 sequence (P51686 1-369): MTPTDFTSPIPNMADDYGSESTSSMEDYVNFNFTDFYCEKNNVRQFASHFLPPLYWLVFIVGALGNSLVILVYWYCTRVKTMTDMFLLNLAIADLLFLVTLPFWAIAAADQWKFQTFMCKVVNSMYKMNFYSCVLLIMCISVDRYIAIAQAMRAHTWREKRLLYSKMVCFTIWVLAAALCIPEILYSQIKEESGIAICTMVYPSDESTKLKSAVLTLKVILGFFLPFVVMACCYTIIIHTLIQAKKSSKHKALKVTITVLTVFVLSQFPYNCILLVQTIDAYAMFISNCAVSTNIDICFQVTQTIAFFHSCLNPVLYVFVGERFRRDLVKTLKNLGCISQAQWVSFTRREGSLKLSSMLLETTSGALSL
Protocol: as §1

CXCR6 = CXCR6 (Homo sapiens, UniProt O00574)
Chain of CXCR6 (O00574 whole entry): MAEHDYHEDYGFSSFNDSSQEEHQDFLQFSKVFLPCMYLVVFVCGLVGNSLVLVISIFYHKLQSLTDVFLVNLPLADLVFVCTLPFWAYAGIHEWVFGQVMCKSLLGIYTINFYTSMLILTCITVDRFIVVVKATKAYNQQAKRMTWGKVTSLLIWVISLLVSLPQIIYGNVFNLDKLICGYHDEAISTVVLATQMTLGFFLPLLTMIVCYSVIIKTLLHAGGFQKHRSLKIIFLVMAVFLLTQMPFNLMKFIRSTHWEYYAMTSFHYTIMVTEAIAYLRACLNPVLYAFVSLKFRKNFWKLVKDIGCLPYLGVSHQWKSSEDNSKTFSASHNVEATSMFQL
Protocol: as §1

CXCR4 chemokine receptor = CXCR4 chemokine receptor (Homo sapiens, UniProt P61073)
Chain of CXCR4 chemokine receptor (P61073 whole entry): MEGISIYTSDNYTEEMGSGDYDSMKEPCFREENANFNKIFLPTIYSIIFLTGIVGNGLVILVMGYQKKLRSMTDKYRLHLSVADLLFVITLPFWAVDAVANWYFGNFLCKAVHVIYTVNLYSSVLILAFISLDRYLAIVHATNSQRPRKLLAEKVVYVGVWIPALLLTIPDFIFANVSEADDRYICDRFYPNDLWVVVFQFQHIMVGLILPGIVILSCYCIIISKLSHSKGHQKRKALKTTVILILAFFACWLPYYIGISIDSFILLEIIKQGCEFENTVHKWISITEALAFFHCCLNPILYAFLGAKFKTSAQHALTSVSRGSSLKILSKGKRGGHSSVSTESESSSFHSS
Protocol: as §1

CCR3 = target: T6, CCR3 (Homo sapiens, UniProt P51677)
T6 sequence (P51677 1-355): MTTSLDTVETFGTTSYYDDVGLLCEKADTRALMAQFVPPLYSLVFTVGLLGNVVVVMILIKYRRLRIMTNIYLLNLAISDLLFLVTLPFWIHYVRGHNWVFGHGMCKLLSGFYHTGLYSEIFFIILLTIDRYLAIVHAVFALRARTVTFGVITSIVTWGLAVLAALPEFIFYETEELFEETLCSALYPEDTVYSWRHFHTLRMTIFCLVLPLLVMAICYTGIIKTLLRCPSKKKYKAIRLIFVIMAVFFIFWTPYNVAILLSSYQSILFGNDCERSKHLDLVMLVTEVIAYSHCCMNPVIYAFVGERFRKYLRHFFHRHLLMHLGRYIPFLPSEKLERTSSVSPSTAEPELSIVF
Protocol: as §1

CCR8 = CCR8 (Homo sapiens, UniProt P51685)
Chain of CCR8 (P51685 whole entry): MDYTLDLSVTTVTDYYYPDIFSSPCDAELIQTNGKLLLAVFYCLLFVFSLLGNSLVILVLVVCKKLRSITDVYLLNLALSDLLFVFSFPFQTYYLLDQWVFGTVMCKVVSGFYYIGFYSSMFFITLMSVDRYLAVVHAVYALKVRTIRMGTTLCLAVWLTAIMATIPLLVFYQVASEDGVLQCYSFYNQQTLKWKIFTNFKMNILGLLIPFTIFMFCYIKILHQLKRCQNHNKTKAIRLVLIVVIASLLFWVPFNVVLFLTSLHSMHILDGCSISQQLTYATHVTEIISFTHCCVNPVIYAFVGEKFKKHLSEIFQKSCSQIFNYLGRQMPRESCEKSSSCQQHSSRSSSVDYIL
Protocol: as §1

N=C(N)NCCC[C@@H]1NC(=O)[C@H](Cc2c[nH]c3ccccc23)NC(=O)[C@H](Cc2ccc(O)cc2)NC(=O)[C@@H]2CCN2C(=O)[C@H]2CCCN2C(=O)CNC1=O [Example 15] (cyclo(YWRG[dP][Aze]))
highly selective: selectivity against CCR7 (CCR7) | selectivity against CXCR1 (CXCR1) | selectivity against CXCCR1 (CXCCR1) | selectivity against CCR1 (CCR1) | selectivity against CCR9 (CCR9) | selectivity against CXCR6 (CXCR6) | selectivity against CXCR4 chemokine receptor (CXCR4 chemokine receptor) | selectivity against CCR3 (CCR3) | selectivity against CCR8 (CCR8)

C[C@@H]1NC(=O)[C@H](CCCNC(=N)N)NC(=O)[C@H](Cc2c[nH]c3ccccc23)NC(=O)[C@H](Cc2ccc(O)cc2)NC(=O)[C@@H]2CCN2C(=O)[C@H]2CCCN2C1=O [Example 16] (cyclo(YWRA[dP][Aze]))
highly selective: selectivity against CCR7 (CCR7) | selectivity against CXCR1 (CXCR1) | selectivity against CXCCR1 (CXCCR1) | selectivity against CCR1 (CCR1) | selectivity against CCR9 (CCR9) | selectivity against CXCR6 (CXCR6) | selectivity against CXCR4 chemokine receptor (CXCR4 chemokine receptor) | selectivity against CCR3 (CCR3) | selectivity against CCR8 (CCR8)
